The values below come from US20220409727A1, “Metal Complexes Bearing Bisstyryl-Bipyridine Ligand and Their Use as Photosensitizer Agent in One and Two-Photon Photodynamic Therapy” (Paris Sciences et Lettres, priority 2019, published 2022).

Data set [1] is described as follows: Emission measurement in CH3CN. Format: physicochemical. The settings on record: room temperature, excitation at 355 nm.
A short description of data set [2]: Luminescence quantum yield measurements. The settings on record: CH3CN, room temperature, excitation at 355 nm. Details: key: fraction, relative to [Ru(bipy)3]Cl2 reference in CH3CN (Φem=5.9%). Format: physicochemical. Put shortly: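 Samples in CH3CN at absorbance 0.1 at 355 nm, excited at 355 nm by an Nd-YAG-pumped OPO with emission collected at right angle onto a monochromator and CCD. Quantum yield calculated relative to [Ru(bipy)3]Cl2 in CH3CN (Φem=5.9%), correcting for absorbed light fraction, integrated emission and refractive index.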

Data set [3] is described as follows: Luminescence lifetime measurements. The class given is physicochemical. The settings on record: degassed CH3CN, excitation at 355 nm. Put shortly: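 Lifetimes were measured in air-saturated and degassed CH3CN solutions (absorbance 0.2 at 355 nm), excited at 355 nm by a pulsed Nd-YAG-pumped OPO. Emission was collected at right angles through a monochromator onto a photomultiplier tube.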

The test system of a further data set is HeLa MCTS. As to the kind of experiment: 3D multicellular tumor spheroids (MCTS) growth inhibition assay. The class given is cell-based, human. The settings on record: 20 μM, 1P (500 nm, 10 J/cm^2) or 2P (800 nm, 10 J/cm^2) irradiation on day 3. The procedure: autoclave. The hot emulsion was transferred into wells (50 μL per well) of a 96 cell culture well plate. The plates were exposed for 3 h to UV irradiation to ensure the sterility and allow the agarose solution to cool down. After this time, the agarose was overlayed with a HeLa cell suspension at a density of 3000 cells per well in 150 μL of media. The MCTS were cultivated and maintained at 37° C. in a cell culture incubator at 37° C. with 5% CO2 atmosphere. The culture media was replaced every two days. Within two-three days MCTs were formed from the cell suspension. The formation as well as integrity, diameter and volume of the MCTs was monitored by an Axio Observer Z1 (Carl Zeiss) phase contrast microscope. The volume was calculated using the following formula: V=4/3πr^3. The luminescence images along the z-axis were captured by a one-(λex=458 nm, λem=600-750 nm) or two-photon (λex=800 nm, λem=600-750 nm) excitation in the z-stack mode with a an LSM 880 (Carl Zeiss) laser scanning confocal microscope equipped with Argon and a Coherent Chameleon 2-Photon laser and a GaAsP detector.
MCTS were treated with the corresponding compounds (20 μM 1-7, 20 μM tetraphenylporphyrin H2TPP, 10 μM cisplatin, 30 μM cisplatin, 2% DMSO, v %) by replacing 50% of the media with drug supplemented media in the dark for three days. After this time, the MCTS were exposed to a two-photon irradiation (800 nm, 10 J/cm^2) with a section interval of 5 μm using a LSM 880 (Carl Zeiss) laser scanning confocal microscope equipped with a Coherent Chameleon 2-Photon laser. The cell culture media was replaced every two days. The integrity and diameter of the MCTs was monitored with an Axio Observer Z1 (Carl Zeiss) phase contrast microscope every 24 h.

Data set [4] concerns SW620/AD300 (doxorubicin-selected P-gp-overexpressing human colon cancer cell) tumour-bearing nude mice. In words: In vivo PDT in tumour-bearing nude mice. The procedure: 6 weeks age nu/nu female mice were purchased from Charles River. Compound 7 was dissolved into physiological saline at first. Tumor xenograft: 6×10^6 SW620/AD300 cells were subcutaneously (s.c.) injected in the nude mice, the cells were suspension in 150 μL Matrigel (Corning) and saline (1:1, v/v). After a week, the tumor volumes of the mice reached approximately 80 mm^3.
30 SW620/AD300 nude tumour-bearing nude mice were randomly separated into 6 groups and five mice for each group.
Group 1: injected 7 (2 mg/Kg 50 μL) intravenously and irradiate under 800 nm laser (50 mW, 1 kHz, pulse width 35 fs, 5 s/mm) 1 h after injection;
Group 2: injected 7 (2 mg/Kg 50 μL) intravenously and irradiate under 500 nm light (10 mW/cm^2, 60 min);
Group 3: injected by physiological saline (50 μL) and treated with 800 nm laser (50 mW, 1 kHz, pulse width 35 fs, 5 s/mm) 1 h after injection;
Group 4: injected by physiological saline (50 μL) and treated with 500 nm light (10 mW/cm^2, 60 min);
Group 5: intravenous injected 7 (2 mg/Kg 50 μL);
Group 6: injected 50 μL physiological saline.
The mice were anesthetized by the injection of 4% chloral hydrate aqueous solution (0.2 mL/20 g) before treatment. The tumour volume and body weight were measured and record for each two days. Tumor volume was calculated by the following formula
After the treatment, the mice were euthanized. The tumour was collected and fixated by 4% paraformaldehyde, and then obtained as paraffin-embedded samples and stained with hematoxylin and eosin (H&E). A Carl Zeiss Axio Imager Z2 microscope was used to observe the tissue structure and cell state of the sections.

In data set [5] the test system is mouse colon carcinoma (CT-26) cells.
Experimental: The human glioblastoma astrocytoma (U373) cell line was cultured in MEM medium supplemented with 10% FBS, 1% NEAA (non-essential amino-acids) and 1% penicillin/streptomycin. […] The human retinal epithelial cells (RPE-1, non-cancerous cells immortalized with hTERT) were cultured in DMEM-F12 medium supplemented with 10% FBS and 1% penicillin/streptomycin. All cell lines were obtained from the American Type Culture Collection (ATCC) and cultured at 37° C. and 5% CO2. Before an experiment, the cells were passaged three times.
The cytotoxicity of the compounds was assessed by measuring cell viability using a fluorometric resazurin assay. The cultivated cells were seeded in triplicates in 96 well plates with a density of 4000 cells per well in 100 μL of media. After 24 h, the medium was removed and the cells were treated with increasing concentrations of the compound diluted in cell media achieving a total volume of 200 μL. The cells were incubated with the compound for 4 h. After this time, the media was removed and replaced with 200 μL of fresh medium. For the phototoxicity studies, the cells were exposed to light with an Atlas Photonics LUMOS BIO irradiator. Each well was constantly illuminated with either a 480 nm or 540 nm irradiation. During this time, the temperature was maintained constantly at 37° C. The cells were grown in the incubator for additional 44 h. For the determination of the dark cytotoxicity, the cells were not irradiated and after the medium exchange directly incubated for 44 h. After this time, the medium was replaced with fresh medium containing resazurin with a final concentration of 0.2 mg/mL. After 4 h incubation, the amount of the fluorescent product resorufin was determined upon excitation at 540 nm and measurement its emission at 590 nm using a SpectraMax M2 Microplate Reader (Molecular Devices).
The obtained data was analyzed with the GraphPad Prism software.
In data set [6] the test system is human glioblastoma astrocytoma (U373) cells. As to the kind of experiment: (Photo-)cytotoxicity on 2D cell monolayers, resazurin assay, U373. The settings on record: for IC50: compounds 1-3 as chloride salts. On the technique in general: Alamar Blue is a resazurin reagent that responds to reducing activity.

Like-named read-outs stand apart in the source and are kept apart here.

“[Ru(bipy)2((E,E′)-4,4′-Bis[p-(N,N-methoxy)styryl]-2,2′-bipyridine)][PF6]2 [Compound 7]”: the “λem/nm (Emission maximum)” value in data set [1] amounted to 664 nm. Also, the “ϕem (Luminescence Quantum Yield)” value in data set [2] came out at 0.028. For the same substance, the “τ/ns degassed (Lifetime)” value in data set [3] is 542 ns. In addition, the “volume of the MCTS after light irradiation” value in the data set with HeLa MCTS is “strongest phototoxic effect”. In addition, the “behaviour of treated animals” value in data set [4] (2 mg/Kg intravenously) is recorded as “behave normally, without signs of pain, stress or discomfort”. Moreover, the “tumour volume, PDT treated” value in data set [4] (2 mg/Kg intravenously plus 2P irradiation at 800 nm or 1P irradiation at 500 nm, 15 days) was “drastically shrank until they were nearly eradicated”. In data set [4] (2 mg/Kg intravenously, no irradiation), the “tumour volume, compound only” value was “did not show any significant effect”. The IC50 in data set [5] was 0.7 ± 0.4 µM; in data set [6] (read-out: IC50 480 nm (10 min, 3.1 J/cm^2), U373, irradiation 480 nm (10 min, 3.1 J/cm^2)), 10.5 ± 1.7 µM; in data set [6] (read-out: IC50 dark, U373, dark, 4 h incubation) it was over 100 µM. Also, the “PI (480 nm)” value in data set [6] (U373, dark vs 480 nm (10 min, 3.1 J/cm^2)) was over 9.5. In addition, the “PI (540 nm)” value in data set [6] (U373, dark vs 540 nm (40 min, 9.5 J/cm^2)) is reported as over 7.4.
